One experiment has as its target T1, human EP2 receptor (Homo sapiens, UniProt P43116).
T1 construct: expressed in transfected cells; HEK-293 is named only for the cAMP assay
Nature of the experiment: Binding ability to human EP receptors, [3H]PGE2 displacement, EP2. The settings on record: membranes expressing human EP2 receptor; [3H]PGE2 3 nM; Cheng-Prusoff; read-out: pKi (M) EP2 (converted). The protocol: (§1) Membranes were prepared from cells stably transfected with human EP receptor cDNA. In brief, cells were cultured to confluency, scraped from culture flasks, and centrifuged (800 g, 8 minutes, 4° C.). Cells were twice washed in ice cold homogenisation buffer containing 10 mM Tris-HCl, 1 mM EDTA.2Na, 250 mM sucrose, 1 mM PMSF, 0.3 mM indomethacin, pH 7.4, homogenised and re-centrifuged as before. The supernatant was stored on ice and pellets re-homogenised and re-spun. Supernatants were pooled and centrifuged at 40000 g, 10 minutes, 4° C. Resultant membrane pellets were stored at −80° C. until use.
(§2) For assay, membranes expressing human EP4, EP3, EP2 or EP1 receptors were incubated in Millipore (MHVBN45) plates containing assay buffer, radiolabelled [^3H]PGE2 and 0.1 to 10 000 nM concentrations of compounds. Incubations were performed at suitable temperatures and for suitable times to allow equilibrium to be reached. Non-specific binding was determined in the presence of 10 uM PGE2. Bound and free radiolabel was separated by vacuum manifold filtration using appropriate wash buffers, and bound radiolabel was determined by scintillation counting. Constituents of each of the buffers are included in table 1 below.
(§3) The affinity or pKi of each compound for each receptor was calculated from the concentration causing 50% radioligand displacement (IC50) using the Cheng-Prusoff equation: […]
(§4) This approach follows that set out in Kenakin, T. P., Pharmacologic analysis of drug receptor interaction. Raven Press, New York, 2nd edition.

For a further experiment, the target named is T2, human EP4 receptor (Homo sapiens, UniProt P35408).
T2 construct: expressed in transfected cells; HEK-293 is named only for the cAMP assay
T2 sequence (P35408 whole entry): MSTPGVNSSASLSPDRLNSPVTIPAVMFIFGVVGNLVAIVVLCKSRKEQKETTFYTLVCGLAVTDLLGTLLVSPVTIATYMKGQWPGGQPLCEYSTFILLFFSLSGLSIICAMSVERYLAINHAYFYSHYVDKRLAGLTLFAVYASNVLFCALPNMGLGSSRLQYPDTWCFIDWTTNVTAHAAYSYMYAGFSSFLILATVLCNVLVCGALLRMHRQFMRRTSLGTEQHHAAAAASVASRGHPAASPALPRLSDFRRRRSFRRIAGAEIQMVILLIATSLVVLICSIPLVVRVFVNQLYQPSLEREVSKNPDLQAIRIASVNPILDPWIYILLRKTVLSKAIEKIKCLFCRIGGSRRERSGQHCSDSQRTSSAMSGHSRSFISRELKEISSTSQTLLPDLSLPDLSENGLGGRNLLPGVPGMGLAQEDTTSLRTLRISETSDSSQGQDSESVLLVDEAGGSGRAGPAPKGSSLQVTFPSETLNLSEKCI
Nature of the experiment: Binding ability to human EP receptors, [3H]PGE2 displacement, EP4. The settings on record: membranes expressing human EP4 receptor; [3H]PGE2 1 nM; Cheng-Prusoff; read-out: pKi (M) EP4 (converted). The protocol: as §1, §2, §3, §4

SMILES strings stand for the structures. Where only a bound is given, the exact number is not on record here.

T1 sequence (P43116 whole entry): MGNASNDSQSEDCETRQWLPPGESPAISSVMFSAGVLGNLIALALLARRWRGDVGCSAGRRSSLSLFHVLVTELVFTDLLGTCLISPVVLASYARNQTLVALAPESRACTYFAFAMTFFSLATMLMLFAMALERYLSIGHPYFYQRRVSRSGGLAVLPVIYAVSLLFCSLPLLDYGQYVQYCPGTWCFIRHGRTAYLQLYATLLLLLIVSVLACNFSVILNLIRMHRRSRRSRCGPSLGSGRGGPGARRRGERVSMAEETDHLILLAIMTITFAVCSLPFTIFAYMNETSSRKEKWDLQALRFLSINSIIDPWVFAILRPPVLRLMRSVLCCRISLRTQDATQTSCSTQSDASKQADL

Regarding `O=C(O)C=Cc1cccc(NC(=O)c2ccc(Oc3ccccc3)o2)c1` [Compound 5, 3-{3-[(5-Phenoxy-furan-2-carbonyl)-amino]-phenyl}-acrylic acid], the results for the Ki at human EP2 receptor and on human EP4 receptor were below 1e-07 M and above 1e-06 M, respectively.
Take `O=C(O)C=Cc1cccc(NC(=O)c2ccc(C(=O)c3ccccc3)o2)c1` [Compound 11, 3-{3-[(5-Benzoyl-furan-2-carbonyl)-amino]-phenyl}-acrylic acid]: the Ki on human EP2 receptor was below 1e-07 M; on human EP4 receptor, above 1e-06 M.
In the case of `O=C(O)C=Cc1cccc(Sc2cccc(-c3ccccc3)n2)c1` [Compound 16, 3-[3-(6-Phenyl-pyridin-2-ylsulfanyl)-phenyl]-acrylic acid], the results for the Ki on human EP2 receptor and at human EP4 receptor were below 1e-06 M and above 1e-06 M, respectively.
As to `O=C(O)C=Cc1cccc(NC(=O)c2ccc3oc4ccccc4c3c2)c1` [Compound 20, 3-{3-[(Dibenzofuran-2-carbonyl)-amino]-phenyl}-acrylic acid], the results for the Ki at human EP2 receptor and at human EP4 receptor were below 1e-07 M and above 1e-06 M, respectively.
The corresponding values for `O=C(O)C=Cc1cccc(CC(O)c2ccc(-c3ccccc3)o2)c1` (stereo not shown) [Compound 28, 3-{3-[2-Hydroxy-2-(5-phenyl-furan-2-yl)-ethyl]-phenyl}-acrylic acid] are below 1e-06 M and above 1e-06 M.
For `O=C(O)C=Cc1cccc(C=Cc2ccc(-c3ccccc3)o2)c1` [Compound 29, 3-{3-[2-(5-Phenyl-furan-2-yl)-vinyl]-phenyl}-acrylic acid], the results for the Ki at human EP2 receptor and on human EP4 receptor were below 1e-06 M and above 1e-06 M, respectively.
The corresponding values for `O=C(O)C=Cc1cccc(-c2nc3cc(-c4ccccc4)ccc3o2)c1` [Compound 34, 3-[3-(5-Phenyl-benzoxazol-2-yl)-phenyl]-acrylic acid] are below 1e-06 M and above 1e-06 M.
Turning to `O=C(O)C=Cc1cccc(NC(=O)c2ccc(-c3ccccc3)o2)n1` [Compound 40, 3-{6-[(5-Phenyl-furan-2-carbonyl)-amino]-pyridin-2-yl}-acrylic acid], the Ki was below 1e-06 M on human EP2 receptor and above 1e-06 M at human EP4 receptor.
The corresponding values for `O=C(O)C=Cc1ccc(F)c(NC(=O)c2ccc(-c3ccccc3)o2)c1` [Compound 45, 3-{4-Fluoro-3-[(5-phenyl-furan-2-carbonyl)-amino]-phenyl}-acrylic acid] are below 1e-07 M and above 1e-06 M.
The corresponding values for `O=C(O)C=Cc1ccc(Cl)c(NC(=O)c2cc(-c3ccccc3)ccc2F)c1` [Compound 52, 3-{4-Chloro-3-[(4-fluoro-biphenyl-3-carbonyl)-amino]-phenyl}-acrylic acid] are below 1e-08 M and above 1e-07 M.
As for `N=C(Nc1cccc(C=CC(=O)O)c1)c1cc(-c2ccccc2)ccc1F` [Compound 58, 3-{3-[(4-Fluoro-biphenyl-3-carboximidoyl)-amino]-phenyl}-acrylic acid], the Ki on human EP2 receptor is below 1e-06 M; at human EP4 receptor, above 1e-06 M.

These data come from US8080567B2, “EP2 receptor agonists” (Asterand UK Limited, priority 2005, dated 2011).
